Values joined by “and” are separate entries in the source; they are usually repeats but may differ in a detail not shown here. Identical values can stand only once.
Test: xn = mol fraction of the nth substance listed

CC(C)OCCO + CCCCCCO
viscosity [mPa·s], 101 kPa
Settings	298.15 K	303.15 K	308.15 K
x1 = 0.0533	4.409	3.75	3.294
x1 = 0.1018	4.192	3.555	3.096
x1 = 0.1512	3.993	3.38	2.917
x1 = 0.2013	3.789	3.2	2.752
x1 = 0.254	3.6	3.033	2.601
x1 = 0.3074	3.4	2.857	2.449
x1 = 0.4034	3.103	2.596	2.216
x1 = 0.5044	2.834	2.374	2.028
x1 = 0.6042	2.631	2.216	1.894
x1 = 0.7118	2.449	2.079	1.79
x1 = 0.8046	2.312	1.985	1.758
x1 = 0.8418	2.305	1.991	1.777
x1 = 0.9001	2.262	1.975	1.763
x1 = 0.953	2.226	1.952	1.771

CC(C)OCCO + CCCCCO
298.15 K, 101.33 kPa
Settings	viscosity [mPa·s]
x1 = 0.0159	3.466
x1 = 0.0312	3.405
x1 = 0.0461	3.354
x1 = 0.0653	3.292
x1 = 0.0867	3.234
x1 = 0.1097	3.16
x1 = 0.137	3.099
x1 = 0.1627	3.029
x1 = 0.1931	2.952
x1 = 0.2267	2.881
x1 = 0.2585	2.819
x1 = 0.2966	2.748
x1 = 0.3417	2.677
x1 = 0.3843	2.61
x1 = 0.4446	2.526
x1 = 0.4848	2.473
x1 = 0.4956	2.461
x1 = 0.5246	2.432
x1 = 0.5561	2.397
x1 = 0.6012	2.357
x1 = 0.6643	2.297
x1 = 0.7168	2.261
x1 = 0.7741	2.218
x1 = 0.8198	2.191
x1 = 0.8573	2.167
x1 = 0.8964	2.142
x1 = 0.9259	2.133
x1 = 0.9558	2.116
x1 = 0.9775	2.11

O=C(Cc1ccccc1)Cc1ccccc1 + CCCCCOC(C)=O
298.15 K, 101 kPa
Settings	viscosity [mPa·s]
x1 = 0.0269	0.8322
x1 = 0.0305	0.8358

Oc1cccc(Cl)c1 + CCCCCOC(C)=O
Settings	viscosity [mPa·s]
298.15 K, 101 kPa, x1 = 0.5	1.244

CCCCCC(C)C + CCCCO
viscosity [mPa·s], 100 kPa
Settings	x2 = 0.1005	x2 = 0.2014	x2 = 0.3002	x2 = 0.4	x2 = 0.5004	x2 = 0.6006	x2 = 0.7	x2 = 0.8001	x2 = 0.9
293.15 K	0.528	0.576	0.634	0.741	0.891	1.1	1.37	1.74	2.24
303.15 K	0.467	0.508	0.549	0.635	0.748	0.902	1.11	1.38	1.75
313.15 K	0.413	0.447	0.476	0.548	0.633	0.751	0.906	1.11	1.39
323.15 K	0.364	0.391	0.422	0.473	0.539	0.633	0.751	0.907	1.12

CCCCCCCC(=O)OCC(COC(=O)CCCCCCC)OC(=O)CCCCCCC + CCCCO
viscosity [mPa·s], 101.33 kPa
Settings	x1 = 0.1	x1 = 0.2	x1 = 0.3	x1 = 0.4	x1 = 0.5	x1 = 0.6	x1 = 0.7	x1 = 0.8	x1 = 0.9
298 K	3.87	5.49	7.15	8.84	10.54	12.28	14.02	16.05	18
303 K	3.4	4.73	6.13	7.53	8.91	10.29	11.73	13.34	14.82
308 K	2.97	4.12	5.28	6.46	7.57	8.74	9.89	11.2	12.39
313 K	2.62	3.61	4.59	5.56	6.51	7.48	8.44	9.52	10.52

CCCCOCCO + CCCCO
101 kPa
Settings	viscosity [mPa·s]
298.15 K, x1 = 0.7025	2.645
303.15 K, x1 = 0.4	2.255
303.15 K, x1 = 0.6054	2.345
303.15 K, x1 = 0.8042	2.475
308.15 K, x1 = 0.7025	2.045

COC(=O)c1ccccc1 + CCCCO
viscosity [mPa·s], 100 kPa
Settings	x1 = 0.05	x1 = 0.1	x1 = 0.2	x1 = 0.3	x1 = 0.45	x1 = 0.6	x1 = 0.749	x1 = 0.849	x1 = 0.899	x1 = 0.95
293.2 K	2.62	2.397	2.097	1.922	1.787	1.746	1.777	1.836	1.885	1.95
298.2 K	2.308	2.119	1.866	1.719	1.606	1.574	1.604	1.659	1.703	1.761
303.2 K	2.041	1.882	1.668	1.545	1.453	1.429	1.459	1.509	1.549	1.6
308.2 K	1.813	1.678	1.5	1.398	1.32	1.303	1.333	1.381	1.417	1.464
313.2 K	1.616	1.505	1.354	1.267	1.204	1.193	1.224	1.269	1.303	1.345

CCCCNCCO + CCCCOCCO
viscosity
Settings	293.15 K	298.15 K	303.15 K	308.15 K	313.15 K	318.15 K	323.15 K
101.3 kPa, x1 = 0.404	7.13 mPa·s	5.95 mPa·s	5.02 mPa·s	4.27 mPa·s	3.67 mPa·s	3.18 mPa·s	2.77 mPa·s
101.3 kPa, x1 = 0.604	10.3 mPa·s	8.4 mPa·s	6.94 mPa·s	5.8 mPa·s	4.89 mPa·s	4.17 mPa·s	3.58 mPa·s
101.33 kPa, x1 = 0.1	3.94 mPa·s and 3.941 mPa·s	3.4 mPa·s and 3.405 mPa·s	2.96 mPa·s and 2.963 mPa·s	2.6 mPa·s and 2.598 mPa·s	2.29 mPa·s and 2.294 mPa·s	2.04 mPa·s and 2.038 mPa·s	1.82 mPa·s and 1.821 mPa·s
101.33 kPa, x1 = 0.2	4.813 mPa·s	4.111 mPa·s	3.541 mPa·s	3.075 mPa·s	2.69 mPa·s	2.369 mPa·s	2.099 mPa·s
101.33 kPa, x1 = 0.3	5.87 mPa·s and 5.865 mPa·s	4.95 mPa·s and 4.952 mPa·s	4.22 mPa·s and 4.221 mPa·s	3.63 mPa·s and 3.629 mPa·s	3.15 mPa·s and 3.146 mPa·s	2.75 mPa·s and 2.746 mPa·s	2.41 mPa·s and 2.414 mPa·s
101.33 kPa, x1 = 0.4	7.135 mPa·s	5.951 mPa·s	5.019 mPa·s	4.272 mPa·s	3.669 mPa·s	3.176 mPa·s	2.77 mPa·s
101.33 kPa, x1 = 0.5	8.57 mPa·s and 8.573 mPa·s	7.07 mPa·s and 7.072 mPa·s	5.9 mPa·s and 5.901 mPa·s	4.98 mPa·s and 4.975 mPa·s	4.24 mPa·s and 4.236 mPa·s	3.64 mPa·s and 3.638 mPa·s	3.15 mPa·s and 3.149 mPa·s
101.33 kPa, x1 = 0.6	10.3 mPa·s	8.404 mPa·s	6.94 mPa·s	5.796 mPa·s	4.891 mPa·s	4.166 mPa·s	3.58 mPa·s
101.33 kPa, x1 = 0.7	12.21 mPa·s	9.853 mPa·s	8.056 mPa·s	6.668 mPa·s	5.582 mPa·s	4.719 mPa·s	4.027 mPa·s
101.33 kPa, x1 = 0.8	14.41 mPa·s	11.5 mPa·s	9.314 mPa·s	7.641 mPa·s	6.345 mPa·s	5.326 mPa·s	4.514 mPa·s
101.33 kPa, x1 = 0.9	16.91 mPa·s	13.36 mPa·s	10.72 mPa·s	8.718 mPa·s	7.183 mPa·s	5.985 mPa·s	5.042 mPa·s
